The values that follow come from patent US9643951B2, “Compound having somatostatin receptor agonistic activity and pharmaceutical use thereof” (ONO PHARMACEUTICAL CO., LTD., priority 2013, dated 2017).

A word on the EC50: it is the concentration needed to bring the measured effect to its halfway point. Read a low EC50 as greater potency.

The structures appear in SMILES notation.

Series [1] concerns the target somatostatin receptor subtype 1 (SSTR1) (Homo sapiens, UniProt P30872). Conditions: reported; cited from earlier work.
Series [2] concerns the target somatostatin receptor subtype 4 (SSTR4) (Homo sapiens, UniProt P31391). Conditions: reported; cited from earlier work.
In series [3] the target is somatostatin receptor subtype 3 (SSTR3) (Homo sapiens, UniProt P32745). The following applies: reported; cited from earlier work.
Chain of somatostatin receptor subtype 3 (SSTR3) (P32745 whole entry, species assumed): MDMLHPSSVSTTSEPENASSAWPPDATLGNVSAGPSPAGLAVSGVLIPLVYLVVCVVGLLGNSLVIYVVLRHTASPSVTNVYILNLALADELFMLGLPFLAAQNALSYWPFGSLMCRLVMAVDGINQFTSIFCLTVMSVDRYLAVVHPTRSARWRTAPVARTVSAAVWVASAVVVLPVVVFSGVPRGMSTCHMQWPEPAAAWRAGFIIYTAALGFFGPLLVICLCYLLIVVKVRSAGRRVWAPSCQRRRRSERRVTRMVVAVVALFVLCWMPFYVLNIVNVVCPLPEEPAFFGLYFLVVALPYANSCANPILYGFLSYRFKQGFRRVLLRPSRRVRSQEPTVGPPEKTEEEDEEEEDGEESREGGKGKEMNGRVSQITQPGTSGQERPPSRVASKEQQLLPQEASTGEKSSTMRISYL
Series [4] deals with somatostatin receptor subtype 2 (SSTR2) (Homo sapiens, UniProt P30874). Conditions: reported; cited from earlier work.
Chain of somatostatin receptor subtype 2 (SSTR2) (P30874 whole entry, species assumed): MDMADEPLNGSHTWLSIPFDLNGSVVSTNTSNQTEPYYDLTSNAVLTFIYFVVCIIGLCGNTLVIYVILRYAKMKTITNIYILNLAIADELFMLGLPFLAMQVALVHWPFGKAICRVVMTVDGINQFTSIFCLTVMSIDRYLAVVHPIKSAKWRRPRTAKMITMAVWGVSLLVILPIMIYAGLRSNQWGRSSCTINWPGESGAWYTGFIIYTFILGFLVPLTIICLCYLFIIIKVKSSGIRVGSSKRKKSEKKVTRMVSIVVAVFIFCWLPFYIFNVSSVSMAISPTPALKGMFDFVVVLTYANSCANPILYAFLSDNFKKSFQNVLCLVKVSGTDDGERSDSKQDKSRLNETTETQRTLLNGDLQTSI
Another series relates to gastric acid secretion. Nature of the series: Evaluation of suppression of gastric acid secretion using rats (pyloric ligation). The format is in vivo. The following applies: continuous intravenous administration at 1 mcg (microgram)/kg/h.
In series [5] the test system is growth hormone (GH) secretion. Nature of the series: Evaluation of suppression of growth hormone (GH) secretion using rats (GHRH-induced). The format is in vivo. Conditions: for inhibition in vivo at 1 mg/kg: Rattus norvegicus, Procedure (B): oral administration 8 hours beforehand, read-out: percentage of suppression of GH secretion. The protocol: Evaluation of Suppression of Growth Hormone (GH) Secretion Using Rats
[Procedure (A): Administration of a Test Compound 30 Minutes Beforehand]
A medium (distilled water (Otsuka distilled water, Otsuka Pharmaceutical Factory, […]) IGS rats (Charles River Laboratories Japan, Inc.)) and after 27 minutes, the animals were administered with 50 mg/kg of pentobarbital sodium (Somnopentyl, Kyoritsu Seiyaku Corporation) via the tail vein for anaesthesia. Three minutes after administration of pentobarbital sodium, the rats were administered with 0.01 mg/kg of growth hormone-releasing hormone (GHRH, Bachem) via the tail vein to induce GH secretion. In order to measure the blood GH concentration, 0.2 mL of blood was collected through the jugular vein at 5 minutes after administration of GHRH. The collected blood was centrifuged at 4° C., 13,000×g for 5 minutes to obtain plasma. The blood GH concentration was measured by using Rat/Mouse Growth Hormone ELISA (Millipore) following the instruction of the kit. The percentage (%) of suppression of GH secretion was determined by using the obtained blood GH concentration and the equation {[suppression (%) of GH secretion]=([blood GH concentration of the group administered with the medium]−[blood GH concentration of the group administered with a test compound])/[blood GH concentration of the group administered with the medium]×100}. In the equation, the group administered with the medium represents the group of animals administered with the medium and the group administered with a test compound represents the group of animals administered with a test compound dissolved in the medium.
[Procedure (B): Administration of a Test Compound 8 Hours Beforehand]
A medium (distilled water (Otsuka distilled water, Otsuka Pharmaceutical Factory, […]) IGS rats (Charles River Laboratories Japan, Inc.)) and after 7 hours and 57 minutes, the animals were administered with 50 mg/kg of pentobarbital sodium (Somnopentyl, Kyoritsu Seiyaku Corporation) via the tail vein for anaesthesia. Three minutes after administration of pentobarbital sodium, the rats were administered with 0.01 mg/kg of growth hormone-releasing hormone (GHRH, Bachem) via the tail vein to induce GH secretion. The rest of the procedure is the same as in [Procedure (A)] described above.

Another series concerns the target T1, human SSTR2 (Homo sapiens, UniProt P30874).
T1 construct: Myc; expressed in transfected cells
Briefly: Evaluation of SSTR2 agonistic activity using cells expressing human SSTR2 (suppression of forskolin-stimulated cAMP production, SSTR2-CHO-K1). The format is cell-based. The method, then: Evaluation of SSTR2 Agonistic Activity Using Cells Expressing Human SSTR2
(1) Isolation of Human SSTR2 Gene
Human brain cDNA was purchased from Ambion (catalogue No.: 7962; Lot No.: 040200121). PCR primers, hSSTR2_F1_XhoI: 5′-[…]-3′ (SEQ ID NO: 1) and hSSTR2_R1_EcoRI: 5′-[…]-3′ (SEQ ID NO: 2) were designed on the basis of the sequence GenBank NM_001050.
PCR reaction (95° C. for 2 min.→[98° C. for 10 sec., 60° C. for 30 sec. and 68° C. for 90 sec.]×30 cycles) was carried out using the human brain cDNA as a template and using KOD-plus-(TOYOBO Co., Ltd.). The amplified PCR product was subjected to 1% agarose gel electrophoresis, purified using QIAquick Gel Extraction Kit (QIAGEN) and digested with restriction enzymes XhoI and EcoRI. The digested fragments were ligated to an expression vector (pIRESneo-Myc) using the DNA Ligation Kit Ver. 2 (Takara) and used for transformation of E. coli DH5a. The plasmid pIRESneo-Myc/hSSTR2 was prepared and the DNA sequence thereof was confirmed.
(2) Culture of CHO-K1 Cells
CHO-K1 (−) was cultured in Ham's F-12 medium (containing foetal bovine serum (10%), penicillin (100 U/mL) and streptomycin (0.1 mg/mL)). The transduced cells were cultured in the same medium supplemented with Geneticin (1 mg/mL).
(3) Transduction of CHO-K1 Cells
CHO-K1(−) cells were transduced with the plasmid pIRESneo-Myc/hSSTR2 using Lipofectamine 2000 (Invitrogen). After 48 hours, selection was carried out by replacing the medium with the one containing 1 mg/mL of Geneticin to establish a stable overexpressing cell line (SSTR2-CHO-K1).
(4) Evaluation of SSTR2 Agonistic Activity
The human SSTR2 agonistic activity of a test compound was evaluated according to the following procedures by using a suppression activity of intracellular cyclic AMP (cAMP) production by forskolin stimulation as an index. SSTR2-CHO-K1 cells suspended in Ham's F-12 medium (containing foetal bovine serum (10%), penicillin (100 U/mL) and streptomycin (0.1 mg/mL)) supplemented with 0.25 mg/mL of Geneticin were inoculated into a 96-well plate at a density of 4.0×10^4 cells/0.1 mL per well. On the next day, the medium was removed and washed twice with 0.1 mL of wash buffer [0.1% bovine serum albumin (BSA), 20 mmol/L 4-(2-hydroxyethyl)-1-piperazineethane sulphonic acid (HEPES)-containing Hank's balanced salt solution (HBSS)]. An assay buffer [[…] 3-isobutyl-1-methylxanthine (IBMX), 0.1% BSA, 20 mmol/L HEPES-containing HBSS] was added to the wells at 0.06 mL per well and the plate was incubated for 15 minutes under the conditions of 5% carbon dioxide and 37° C. Thereafter, an assay buffer containing a test compound at a concentration twice as high as the final concentration and 0.02 mmol/L of forskolin was added to wells at 0.06 mL per well and the plate was incubated for 30 minutes under the conditions of 5% carbon dioxide and 37° C. Thereafter, the Assay/Lysis buffer included in the cAMP-Screen® kit (available from Applied Biosystems) was added to wells at 0.12 mL per well and the plate was incubated for 30 minutes under the conditions of 5% carbon dioxide and 37° C. The concentration of cAMP in samples were measured by ELISA according to the instruction of the kit.
A general note: Changes in cAMP serve as a functional read-out for many G protein-coupled receptors.

Series [6] in a line: Human hepatic microsome stability test. The class given is in vitro ADME. The following applies: human hepatic microsomes 1 mg/mL; 60 minutes; test compound 0.001 mmol/L; 37° C. The method, then:
Human Hepatic Microsome Stability Test
To a reaction vessel heated to 37° C. in a water bath, 0.392 mL of phosphate buffer (0.1 mol/L, pH 7.4) containing human hepatic microsomes (1 mg/mL, Xenotech) and NADPH-Co-factor (NADP+1.3 mmol/L, BD-Bioscience) was added and pre-incubated for 5 minutes. A 50% acetonitrile solution (0.008 mL) containing 0.05 mmol/L of a test compound was added thereto to initiate the enzyme reaction (final concentration of the test compound: 0.001 mmol/L). Immediately after initiation of the reaction and at 60 minutes thereafter, 0.050 mL of the reaction solution was respectively collected, which was immediately added to an acetonitrile solution (0.2 mL) containing an internal standard (45 nmol/L, 1-[3-(3,5-dimethylphenyl)-4-quinolinyl]-4-piperidineamine) to terminate the enzyme reaction.
The residual rate (%), which is indicative of stability of the test compound, was calculated using the ratio of peak areas between the test compound and the internal substance determined by LC/MS/MS (TSQ Quantum Discovery MAX, Thermo) analysis of the sample thus prepared by the above procedures followed by filtration, and the equation: {[residual rate (%)=[peak area of a test compound in a sample at 60 minutes after initiation of the reaction/peak area of the internal standard]/[peak area of the test compound in the sample immediately after initiation of the reaction/peak area of the internal standard]×100}.

Series [7] is described as follows: Evaluation of cytotoxicity using cultured human hepatocytes (intracellular ATP). Conditions: read-out: IC50 of cytotoxicity (concentration at which 50% of the luminescence is suppressed). The class given is cell-based. The method, then:
Evaluation of Cytotoxicity Using Cultured Human Hepatocytes
Frozen adhesive human hepatocytes were thawed, suspended in a hepatocellular medium (HCM) purchased from Lonza and inoculated to a 96-well plate coated with collagen. The culture medium of the hepatocytes cultured overnight in an incubator (5% carbon dioxide, 95% air, 37° C.) was exchanged to the medium containing a test compound at a concentration of 0, 12.5, 25, 50, 100, 200 or 400 (×10^−6 mol/L) and the cells were further cultured for 24 hours. Cytotoxicity was evaluated by measuring the intracellular ATP concentration. Specifically, using the Promega Celltiter-Glo luminescent assay kit available from Promega, cells were lysed in the assay buffer included in the kit and the concentration of ATP released from the cells was measured according to the luminescence resulting from luciferin-luciferase enzyme activity. The luminescence was measured on the SpectraMax plate reader from Molecular Devices. The extent of cytotoxicity of a test compound is represented by the concentration (IC50) of the compound at which 50% of the luminescence is suppressed.

T1 sequence (P30874 whole entry): as the sequence (P30874 whole entry, species assumed) above
Chain of somatostatin receptor subtype 1 (SSTR1) (P30872 whole entry, species assumed): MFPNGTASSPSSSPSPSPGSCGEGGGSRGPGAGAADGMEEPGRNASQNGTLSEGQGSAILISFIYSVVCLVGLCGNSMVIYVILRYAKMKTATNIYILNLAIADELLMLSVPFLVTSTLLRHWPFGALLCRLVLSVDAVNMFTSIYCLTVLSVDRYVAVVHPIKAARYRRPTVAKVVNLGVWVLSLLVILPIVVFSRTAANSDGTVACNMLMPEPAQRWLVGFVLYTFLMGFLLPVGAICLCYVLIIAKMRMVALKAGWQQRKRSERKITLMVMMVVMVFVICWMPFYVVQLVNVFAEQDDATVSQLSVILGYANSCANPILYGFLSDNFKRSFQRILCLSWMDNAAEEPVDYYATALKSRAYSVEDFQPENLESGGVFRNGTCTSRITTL
Chain of somatostatin receptor subtype 4 (SSTR4) (P31391 whole entry, species assumed): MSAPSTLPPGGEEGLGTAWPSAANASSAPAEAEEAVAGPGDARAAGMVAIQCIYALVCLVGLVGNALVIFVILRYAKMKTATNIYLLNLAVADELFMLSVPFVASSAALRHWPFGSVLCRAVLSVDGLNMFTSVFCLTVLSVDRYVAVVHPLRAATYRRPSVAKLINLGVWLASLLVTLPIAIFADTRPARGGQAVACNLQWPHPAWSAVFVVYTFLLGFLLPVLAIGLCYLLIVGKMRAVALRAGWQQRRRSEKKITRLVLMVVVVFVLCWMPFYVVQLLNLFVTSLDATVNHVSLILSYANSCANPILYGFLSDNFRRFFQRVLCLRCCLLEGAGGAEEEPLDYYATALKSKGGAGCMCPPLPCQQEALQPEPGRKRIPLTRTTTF

As to `CC(C)[C@@H]1NC(=O)[C@H](CCCCN)NC(=O)[C@@H](Cc2c[nH]c3ccccc23)NC(=O)[C@H](Cc2ccc(O)cc2)NC(=O)[C@@H](NC(=O)[C@H](N)Cc2ccc3ccccc3c2)CSSC[C@@H](C(=O)N[C@H](C(N)=O)[C@@H](C)O)NC1=O` [lanreotide acetate], the “binding to SSTR1” value in series [1] is recorded as “do not bind”. The “binding to SSTR4” value in series [2] is reported as “do not bind”. Besides, the “binding affinity to SSTR3” value in [3] is “moderate affinity”. Also, the “binding affinity to SSTR2” value in [4] was “high affinity”.

Turning to `C[C@@H](O)[C@@H]1NC(=O)[C@H](CCCCN)NC(=O)[C@@H](Cc2c[nH]c3ccccc23)NC(=O)[C@H](Cc2ccccc2)NC(=O)[C@@H](NC(=O)[C@H](N)Cc2ccccc2)CSSC[C@@H](C(=O)N[C@H](CO)[C@@H](C)O)NC1=O` [octreotide, reference compound], the “percentage of suppression of gastric acid secretion” value in the series with gastric acid secretion came to 39%. For the same molecule, the “suppression of GH secretion” value in series [5] (Procedure (A): 30 minutes beforehand, 0.003 mg/kg by subcutaneous administration) is listed as 98%.

Take `CCNC1CCN(c2c(/C=C/c3cccc(C#N)c3)cncc2-c2cc(Cl)cc(Cl)c2)CC1` [Example 5(6), 3-[(E)-2-{5-(3,5-dichlorophenyl)-4-[4-(ethylamino)-1-piperidinyl]-3-pyridinyl}vinyl]benzonitrile]: the EC50 at human SSTR2 is 48 pM. This molecule also registered a residual rate in series [6] of 83.9%. The inhibition in vivo at 1 mg/kg in series [5] was found to be 89%. Moreover, in [7], the IC50 at 24 h came out at 18 µM.

`Fc1cccc(/C=C/c2cncc(-c3cc(Cl)cc(Cl)c3)c2N2CC[C@@H]3NCCO[C@H]3C2)c1` [Example 3(2), (4aS,8aS)-6-{3-(3,5-dichlorophenyl)-5-[(E)-2-(3-fluorophenyl)vinyl]-4-pyridinyl}octahydro-1H-pyrido[3,4-b][1,4]oxazine]: the EC50 on human SSTR2 stood at 97 pM. In series [6], the residual rate came out at 48.4%. Further, the inhibition in vivo at 1 mg/kg in [5] worked out at 84%. Moreover, in series [7], the IC50 at 24 h is 17 µM.

On human SSTR2, `CCNC1CCN(c2c(-c3ccc(C4(C#N)CC4)cc3)cncc2-c2cc(Cl)cc(Cl)c2)CC1` [Example 5(2), 1-(4-{5-(3,5-dichlorophenyl)-4-[4-(ethylamino)-1-piperidinyl]-3-pyridinyl}phenyl)cyclopropanecarbonitrile] gave an EC50 of 36 pM. In series [6], the residual rate worked out at 80.3%. Also, the inhibition in vivo at 1 mg/kg in [5] was 90%. For the same molecule, in series [7], the IC50 at 24 h turned out to be 22 µM.

`CC(C)(C#N)c1ccc(-c2cncc(-c3cc(Cl)cc(Cl)c3)c2N2CCC(N)CC2)cc1` [Example 2(4), 2-{4-[4-(4-amino-1-piperidinyl)-5-(3,5-dichlorophenyl)-3-pyridinyl]phenyl}-2-methylpropanenitrile] had an EC50 on human SSTR2 of 24 pM. The residual rate in [6] turned out to be 94.0%. Besides, in series [5], the inhibition in vivo at 1 mg/kg came out at 88%. The IC50 at 24 h in series [7] was 13 µM.

On to `N#CC1(c2ccc(-c3cncc(-c4cc(Cl)cc(Cl)c4)c3N3CC[C@@H]4NCCO[C@H]4C3)cc2)CC1` [Example 2(5), 1-(4-{5-(3,5-dichlorophenyl)-4-[(4aS,8aS)-octahydro-6H-pyrido[3,4-b][1,4]oxazin-6-yl]-3-pyridinyl}phenyl)cyclopropanecarbonitrile], for which the midpoint of the response on human SSTR2, the EC50, lay at 50 pM. This molecule also displayed a residual rate in series [6] of 53.1%. Moreover, in series [5], the inhibition in vivo at 1 mg/kg amounted to 85%. Further, in series [7], the IC50 at 24 h was 19 µM.
